Reference: BigSolDB 2.1

C(=Cc1ccc(-c2nc3ccccc3o2)cc1)c1ccc(-c2nc3ccccc3o2)cc1
solubility (mole fraction)
Conditions | 323.15 K | 338.15 K | 353.15 K | 368.15 K | 383.15 K
in DMF | 3.02e-06 | 7.12e-06 | 1.04e-05 | 1.57e-05 | 2.63e-05
in NMP | 3.18e-06 | 7.96e-06 | 1.37e-05 | 2.44e-05 | 3.99e-05
in chlorobenzene | 8.89e-06 | 2.1e-05 | 3.65e-05 | 4.9e-05 | 5.59e-05
in water | 1.3e-07 | 3.39e-07 | 5.56e-07 | 6.6e-07 | –
